Data taken from PubChem BioAssay (NCI).
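The compound was tested at five concentrations on cells cultured in 96-well plates, with a 48-hour exposure period. The concentration for full growth arrest is given as TGI.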

Experiments:
Assay in all cases: inhibition of tumour cell growth, NCI panel, 48 h
LOX IMVI melanoma = test system: LOX IMVI melanoma
CAKI-1 renal = test system: CAKI-1 renal
MDA-N = test system: MDA-N
U251 CNS = test system: U251 CNS
ACHN renal = test system: ACHN renal
SK-MEL-2 melanoma = test system: SK-MEL-2 melanoma
K-562 leukemia = test system: K-562 leukemia
OVCAR-3 ovarian = test system: OVCAR-3 ovarian
SN12C renal = test system: SN12C renal
PC-3 prostate = test system: PC-3 prostate
RXF 393 renal = test system: RXF 393 renal
SNB-19 CNS = test system: SNB-19 CNS
SK-OV-3 ovarian = test system: SK-OV-3 ovarian
UACC-257 melanoma = test system: UACC-257 melanoma
UACC-62 melanoma = test system: UACC-62 melanoma
HCT-15 colon = test system: HCT-15 colon
SR leukemia = test system: SR leukemia
MALME-3M melanoma = test system: MALME-3M melanoma
A498 renal = test system: A498 renal
SW-620 colon = test system: SW-620 colon
M14 melanoma = test system: M14 melanoma
OVCAR-5 ovarian = test system: OVCAR-5 ovarian
MDA-MB-231 breast = test system: MDA-MB-231 breast
NCI-H460 lung = test system: NCI-H460 lung
MOLT-4 leukemia = test system: MOLT-4 leukemia
IGROV1 ovarian = test system: IGROV1 ovarian
T-47D breast = test system: T-47D breast
HL-60(TB) leukemia = test system: HL-60(TB) leukemia
HCC-2998 colon = test system: HCC-2998 colon
RPMI-8226 leukemia = test system: RPMI-8226 leukemia
BT-549 breast = test system: BT-549 breast
MCF7 breast = test system: MCF7 breast
SNB-75 CNS = test system: SNB-75 CNS
DU-145 prostate = test system: DU-145 prostate
786-0 renal = test system: 786-0 renal
UO-31 renal = test system: UO-31 renal
NCI-H522 lung = test system: NCI-H522 lung
SK-MEL-5 melanoma = test system: SK-MEL-5 melanoma
KM12 colon = test system: KM12 colon
NCI-H23 lung = test system: NCI-H23 lung
MDA-MB-435 = test system: MDA-MB-435
SF-268 CNS = test system: SF-268 CNS
HCT-116 colon = test system: HCT-116 colon
HOP-92 NSCLC = test system: HOP-92 NSCLC
COLO 205 colon = test system: COLO 205 colon
SF-539 CNS = test system: SF-539 CNS
EKVX NSCLC = test system: EKVX NSCLC
NCI-H226 lung = test system: NCI-H226 lung
A549 NSCLC = test system: A549 NSCLC
HT29 colon = test system: HT29 colon
OVCAR-4 ovarian = test system: OVCAR-4 ovarian
SK-MEL-28 melanoma = test system: SK-MEL-28 melanoma
NCI/ADR-RES ovarian = test system: NCI/ADR-RES ovarian
OVCAR-8 ovarian = test system: OVCAR-8 ovarian
HOP-62 NSCLC = test system: HOP-62 NSCLC
HS 578T breast = test system: HS 578T breast
SF-295 CNS = test system: SF-295 CNS
CCRF-CEM leukemia = test system: CCRF-CEM leukemia
TK-10 renal = test system: TK-10 renal

For `CCOP(=O)(OCC)/C(C#N)=C/c1cccn1N(C)C`, the TGI (LOX IMVI melanoma) was > 100 µM, the TGI (CAKI-1 renal) was > 100 µM and the TGI (MDA-N) was > 100 µM. For the same molecule, the TGI (U251 CNS) was > 100 µM, the TGI (ACHN renal) was > 100 µM and the TGI (SK-MEL-2 melanoma) was > 100 µM. The TGI (K-562 leukemia) was > 100 µM, the TGI (OVCAR-3 ovarian) was > 100 µM and the TGI (SN12C renal) was > 100 µM. The TGI (PC-3 prostate) was > 100 µM, the TGI (RXF 393 renal) was > 100 µM and the TGI (SNB-19 CNS) was > 100 µM. For the same molecule, the TGI (SK-OV-3 ovarian) was > 100 µM, the TGI (UACC-257 melanoma) was > 100 µM and the TGI (UACC-62 melanoma) was > 100 µM. For the same molecule, the TGI (HCT-15 colon) was > 100 µM, the TGI (SR leukemia) was > 100 µM and the TGI (MALME-3M melanoma) was > 100 µM. The TGI (A498 renal) was > 100 µM, the TGI (SW-620 colon) was > 100 µM and the TGI (M14 melanoma) was > 100 µM. For the same molecule, the TGI (OVCAR-5 ovarian) was > 100 µM, the TGI (MDA-MB-231 breast) was > 100 µM and the TGI (NCI-H460 lung) was > 100 µM. For the same molecule, the TGI (MOLT-4 leukemia) was > 100 µM, the TGI (IGROV1 ovarian) was > 100 µM and the TGI (T-47D breast) was 96.3 µM. The TGI (HL-60(TB) leukemia) was > 100 µM, the TGI (HCC-2998 colon) was > 100 µM and the TGI (RPMI-8226 leukemia) was > 100 µM. For the same molecule, the TGI (BT-549 breast) was > 100 µM, the TGI (MCF7 breast) was > 100 µM and the TGI (SNB-75 CNS) was > 100 µM. The TGI (DU-145 prostate) was > 100 µM, the TGI (786-0 renal) was > 100 µM and the TGI (UO-31 renal) was > 100 µM. For the same molecule, the TGI (NCI-H522 lung) was > 100 µM, the TGI (SK-MEL-5 melanoma) was > 100 µM and the TGI (KM12 colon) was > 100 µM. The TGI (NCI-H23 lung) was > 100 µM, the TGI (MDA-MB-435) was > 100 µM and the TGI (SF-268 CNS) was > 100 µM. For the same molecule, the TGI (HCT-116 colon) was > 100 µM, the TGI (HOP-92 NSCLC) was > 100 µM and the TGI (COLO 205 colon) was > 100 µM. For the same molecule, the TGI (SF-539 CNS) was > 100 µM, the TGI (EKVX NSCLC) was > 100 µM and the TGI (NCI-H226 lung) was > 100 µM. For the same molecule, the TGI (A549 NSCLC) was > 100 µM, the TGI (HT29 colon) was > 100 µM and the TGI (OVCAR-4 ovarian) was > 100 µM. For the same molecule, the TGI (SK-MEL-28 melanoma) was > 100 µM, the TGI (NCI/ADR-RES ovarian) was > 100 µM and the TGI (OVCAR-8 ovarian) was > 100 µM. The TGI (HOP-62 NSCLC) was > 100 µM, the TGI (HS 578T breast) was > 100 µM and the TGI (SF-295 CNS) was > 100 µM. For the same molecule, the TGI (CCRF-CEM leukemia) was > 100 µM and the TGI (TK-10 renal) was > 100 µM.
`O=C1OC(C2OC(=O)c3cc(O)c(O)c(O)c3-c3c(O)c(O)c4oc(=O)c5c(c(O)c(O)c6oc(=O)c3c4c65)-c3c(cc(O)c(O)c3O)C(=O)OCC2O)C2OC(=O)c3c(c(O)c(O)c(O)c3[C@H]2O)-c2c1cc(O)c(O)c2O` (stereo partly specified) was tested, and the TGI (LOX IMVI melanoma) was 35.5 µM, the TGI (CAKI-1 renal) was 22.4 µM and the TGI (MDA-N) was 53.8 µM. For the same molecule, the TGI (U251 CNS) was 57.6 µM, the TGI (ACHN renal) was 80.3 µM and the TGI (SK-MEL-2 melanoma) was > 100 µM. For the same molecule, the TGI (K-562 leukemia) was 42.5 µM, the TGI (OVCAR-3 ovarian) was 67.5 µM and the TGI (SN12C renal) was 36.4 µM. For the same molecule, the TGI (PC-3 prostate) was > 100 µM, the TGI (RXF 393 renal) was 73.5 µM and the TGI (SNB-19 CNS) was > 100 µM. The TGI (SK-OV-3 ovarian) was > 100 µM, the TGI (UACC-257 melanoma) was > 100 µM and the TGI (UACC-62 melanoma) was 56.5 µM. For the same molecule, the TGI (HCT-15 colon) was 33.3 µM, the TGI (SR leukemia) was 43.4 µM and the TGI (MALME-3M melanoma) was > 100 µM. The TGI (A498 renal) was > 100 µM, the TGI (SW-620 colon) was 48.9 µM and the TGI (M14 melanoma) was 39.5 µM. The TGI (OVCAR-5 ovarian) was 47.3 µM, the TGI (MDA-MB-231 breast) was 33.7 µM and the TGI (NCI-H460 lung) was > 100 µM. The TGI (MOLT-4 leukemia) was 65.3 µM, the TGI (IGROV1 ovarian) was > 100 µM and the TGI (T-47D breast) was 80.1 µM. For the same molecule, the TGI (HL-60(TB) leukemia) was 38.8 µM, the TGI (HCC-2998 colon) was > 100 µM and the TGI (RPMI-8226 leukemia) was 76.9 µM. The TGI (BT-549 breast) was > 100 µM, the TGI (MCF7 breast) was 21.5 µM and the TGI (SNB-75 CNS) was 63.7 µM. The TGI (DU-145 prostate) was > 100 µM, the TGI (786-0 renal) was 44.9 µM and the TGI (UO-31 renal) was 81.9 µM. For the same molecule, the TGI (NCI-H522 lung) was 44.5 µM, the TGI (SK-MEL-5 melanoma) was 33.9 µM and the TGI (KM12 colon) was 63 µM. It also gave a TGI (NCI-H23 lung) of 41.2 µM, a TGI (MDA-MB-435) of 42.3 µM and a TGI (SF-268 CNS) of 78.5 µM. It also gave a TGI (HCT-116 colon) of 38.8 µM, a TGI (HOP-92 NSCLC) of 87.1 µM and a TGI (COLO 205 colon) of 36.6 µM. The TGI (EKVX NSCLC) was 41 µM, the TGI (NCI-H226 lung) was 44.2 µM and the TGI (A549 NSCLC) was > 100 µM. The TGI (HT29 colon) was 31.6 µM, the TGI (OVCAR-4 ovarian) was 46 µM and the TGI (SK-MEL-28 melanoma) was > 100 µM. The TGI (NCI/ADR-RES ovarian) was 73.5 µM, the TGI (OVCAR-8 ovarian) was 47.7 µM and the TGI (HOP-62 NSCLC) was > 100 µM. For the same molecule, the TGI (HS 578T breast) was > 100 µM, the TGI (SF-295 CNS) was 68.5 µM and the TGI (CCRF-CEM leukemia) was 37.6 µM.
